These results are taken from US20260083865A1, “PROSTATE SPECIFIC MEMBRANE ANTIGEN (PSMA) LIGANDS AND USE THEREOF” (priority 2022, published 2026).

Test [1] deals with T1, PSMA-expressing C4-2 cells (Homo sapiens, UniProt Q04609).
T1 construct: PSMA-expressing C4-2 cells (ATCC, Cat. No. CRL-3314) were cultured in RPMI-1640; host or cells: C4-2 cells
Kind of test: FACS binding assay (competition with 50 nM PSM-0183). Particulars: pIC50 category of FACS binding, C4-2 cells; read-out: pIC50 [C4-2] CAT (converted). Summed up:
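Competition format: fluorescent tracer PSM-0183 (50 nM) displaced from PSMA on C4-2 cells by a test compound titration over 1 h at 4 °C. Bound tracer was quantified as flow-cytometric AF488 median fluorescence after washing. Four-parameter logistic fits of MFI data gave IC50 and pIC50.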
On the technique in general: Flow cytometry measures light scatter and fluorescence of single cells or particles in a stream.

In test [2] the target is T2, Fc-fusion protein of human PSMA (hPSMA-Fc) (Homo sapiens, UniProt Q04609).
T2 construct: purchased Acro Biosystems PSA-H5264
Nature of the test: Surface plasmon resonance assay (Biacore T200, single cycle kinetic). Particulars: pKD category for PSMA SPR activity assay, hPSMA-Fc, 25° C.; read-out: pKD CAT (converted). Format: binding. Summed up: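 KD, expressed as pKD, came from 1:1 Langmuir fits of reference- and buffer-blank-subtracted SPR data. The runs were single-cycle kinetics at 25° C in HBST/0.1% DMSO over human PSMA-Fc, captured to ~1000 RU on a peptide-coated CM5 surface and regenerated with 10 mM glycine pH 1.5.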
On the technique in general: SPR reads the build-up and loss of mass on a sensor chip optically.

Numbered stars: 1 amine (or outer) side, 2 acyl side, 3 side chain; on linkers, the order of the positions; unused ones are H or OH. Bridge positions count the residues as written; N and C are the ends. Square brackets hold non-standard residues; d marks the D form. Peptide text beside a SMILES is read from it. * marks the point of attachment. DOTA = O=C(O)CN1CCN(CC(=O)O)CCN(CC(=O)*)CCN(CC(=O)O)CC1; Biotin = O=C1N[C@H]2[C@H](CS[C@H]2CCCCC(=O)*)N1; Phe(3-Cl) = N[C@@H](Cc1cccc(Cl)c1)C(=O)O; Phe(4-Cl) = N[C@@H](Cc1ccc(Cl)cc1)C(=O)O; X1 = O=C(CC1CCN([*:1])CC1)[*:2]; Aad = N[C@@H](CCCC(=O)O)C(=O)O; Tle = CC(C)(C)[C@H](N)C(=O)O; Nle = CCCC[C@H](N)C(=O)O; Aib = CC(C)(N)C(=O)O; CO = O=C([*:1])[*:2]; Guanidino = N=C(N)N*; NHBu = CCCCN*

T1 sequence (Q04609 whole entry): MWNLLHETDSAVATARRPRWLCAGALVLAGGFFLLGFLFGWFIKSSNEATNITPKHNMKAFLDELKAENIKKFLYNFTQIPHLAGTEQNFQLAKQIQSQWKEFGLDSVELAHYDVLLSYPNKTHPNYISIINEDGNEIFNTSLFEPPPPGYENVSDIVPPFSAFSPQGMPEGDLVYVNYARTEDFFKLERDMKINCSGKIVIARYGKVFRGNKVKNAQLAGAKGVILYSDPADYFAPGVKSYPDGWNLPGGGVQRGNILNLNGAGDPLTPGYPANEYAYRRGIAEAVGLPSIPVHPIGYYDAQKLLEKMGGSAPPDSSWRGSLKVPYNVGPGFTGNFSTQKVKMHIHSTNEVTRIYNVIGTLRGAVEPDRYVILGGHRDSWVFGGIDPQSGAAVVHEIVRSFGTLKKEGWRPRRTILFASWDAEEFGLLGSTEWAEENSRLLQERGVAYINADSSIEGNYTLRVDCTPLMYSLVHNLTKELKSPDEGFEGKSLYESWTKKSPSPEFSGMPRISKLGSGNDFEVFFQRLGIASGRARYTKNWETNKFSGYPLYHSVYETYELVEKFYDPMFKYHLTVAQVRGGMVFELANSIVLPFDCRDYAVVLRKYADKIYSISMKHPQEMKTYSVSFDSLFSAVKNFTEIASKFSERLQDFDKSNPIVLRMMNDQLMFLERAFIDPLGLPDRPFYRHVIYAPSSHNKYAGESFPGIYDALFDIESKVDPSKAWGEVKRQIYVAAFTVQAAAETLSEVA
T2 sequence (Q04609 44-750 limits assumed): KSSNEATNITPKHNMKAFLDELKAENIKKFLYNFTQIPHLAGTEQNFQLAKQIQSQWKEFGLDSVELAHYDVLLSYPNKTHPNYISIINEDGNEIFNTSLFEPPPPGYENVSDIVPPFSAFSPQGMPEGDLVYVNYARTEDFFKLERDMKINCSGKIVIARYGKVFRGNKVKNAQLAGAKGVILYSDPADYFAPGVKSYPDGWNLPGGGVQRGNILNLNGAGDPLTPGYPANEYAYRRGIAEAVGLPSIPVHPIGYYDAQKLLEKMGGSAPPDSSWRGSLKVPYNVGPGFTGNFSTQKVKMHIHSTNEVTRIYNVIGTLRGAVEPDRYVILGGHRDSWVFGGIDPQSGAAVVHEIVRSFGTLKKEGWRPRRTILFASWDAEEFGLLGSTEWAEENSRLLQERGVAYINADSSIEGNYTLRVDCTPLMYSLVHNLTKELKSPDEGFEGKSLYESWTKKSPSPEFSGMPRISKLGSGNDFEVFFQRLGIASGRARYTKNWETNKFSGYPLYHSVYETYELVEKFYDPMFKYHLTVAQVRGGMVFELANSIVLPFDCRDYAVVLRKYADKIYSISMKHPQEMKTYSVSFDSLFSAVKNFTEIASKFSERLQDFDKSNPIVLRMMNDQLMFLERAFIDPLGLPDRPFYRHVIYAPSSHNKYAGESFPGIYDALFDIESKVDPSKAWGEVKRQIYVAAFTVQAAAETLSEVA

As to `CCCCNC(=O)N[C@H](C(=O)NC(C)(C)C(=O)N[C@@H](Cc1ccccc1)C(=O)N[C@H]1CSSC[C@@H](C(=O)N[C@H](C(=O)N[C@H](C(=O)N2CCC(CC(=O)N[C@H](CCCCNC(=O)CN3CCN(CC(=O)O)CCN(CC(=O)O)CCN(CC(=O)O)CC3)C(N)=O)CC2)[C@@H](C)O)C(C)(C)C)NC(=O)[C@H](CC(N)=O)NC(=O)C(C)(C)NC(=O)[C@H](CCCNC(=N)N)NC(=O)[C@H](CCCCN)NC1=O)[C@@H](C)O` [PSM-0484, nBuCAyl-Thr-Aib-Phe-[Cys-Lys-Arg-Aib-Asn-Cys]-Tle-Thr-Cmp-lys(DOTA)-NH2] ({NHBu-CO}-T[Aib]FCKR[Aib]NC[Tle]T[X1][dK](DOTA)-NH2; disulfide 4-9), the IC50 in test [1] was less than 200 nM. The Kd in test [2] is less than 12.6 nM.
The matching figures for `C[C@@H](O)[C@H](NC(=O)[C@@H](NC(=O)[C@@H]1CSSC[C@H](NC(=O)[C@H](Cc2ccc(Cl)cc2)NC(=O)C(C)(C)NC(=O)[C@@H](NC(=O)CC2CCN(C(=O)CN3CCN(CC(=O)O)CCN(CC(=O)O)CCN(CC(=O)O)CC3)CC2)[C@@H](C)O)C(=O)N[C@@H](CCCC(N)=O)C(=O)N[C@@H](CCCNC(=N)N)C(=O)NC(C)(C)C(=O)N[C@@H](CC(N)=O)C(=O)N1)C(C)(C)C)C(N)=O` [PSM-0485, DOTA-Cmp-Thr-Aib-Pcf-[Cys-Hgn-Arg-Aib-Asn-Cys]-Tle-Thr-NH2] ({DOTA}-[X1]T[Aib][Phe(4-Cl)]C[Aad](NH2)R[Aib]NC[Tle]T-NH2; disulfide 5-10): less than 200 nM and less than 12.6 nM.
The matching figures for `CC(=O)N[C@H](C(=O)NC(C)(C)C(=O)N[C@@H](Cc1cccc(Cl)c1)C(=O)N[C@H]1CSSC[C@@H](C(=O)N[C@H](C(=O)N[C@H](C(=O)N2CCC(CC(=O)N[C@H](CCCCNC(=O)CN3CCN(CC(=O)O)CCN(CC(=O)O)CCN(CC(=O)O)CC3)C(N)=O)CC2)[C@@H](C)O)C(C)(C)C)NC(=O)[C@H](CC(N)=O)NC(=O)C(C)(C)NC(=O)[C@H](CCCNC(=N)N)NC(=O)[C@H](CCCCN)NC1=O)[C@@H](C)O` [PSM-0486, Ac-Thr-Aib-Mcf-[Cys-Lys-Arg-Aib-Asn-Cys]-Tle-Thr-Cmp-lys(DOTA)-NH2] (Ac-T[Aib][Phe(3-Cl)]CKR[Aib]NC[Tle]T[X1][dK](DOTA)-NH2; disulfide 4-9): less than 200 nM and less than 12.6 nM.
Regarding `CC(=O)N[C@H](C(=O)NC(C)(C)C(=O)N[C@@H](Cc1ccc(O)cc1)C(=O)N[C@H]1CSSC[C@@H](C(=O)N[C@H](C(=O)N[C@H](C(=O)N[C@@H](CC(=O)O)C(N)=O)[C@@H](C)O)C(C)(C)C)NC(=O)[C@H](CC(N)=O)NC(=O)C(C)(C)NC(=O)[C@H](CCCNC(=N)N)NC(=O)[C@H](CCCCN)NC1=O)[C@@H](C)O` [PSM-0488, Ac-Thr-Aib-Tyr-[Cys-Lys-Arg-Aib-Asn-Cys]-Tle-Thr-Asp-NH2] (Ac-T[Aib]YCKR[Aib]NC[Tle]TD-NH2; disulfide 4-9), the IC50 in test [1] is less than 200 nM. The Kd in test [2] is 12.6 to 126 nM.
With `C[C@@H](O)[C@H](NC(=O)[C@@H](NC(=O)[C@@H]1CSSC[C@H](NC(=O)[C@H](Cc2ccc(Cl)cc2)NC(=O)C(C)(C)NC(=O)CC2CCN(C(=O)CN3CCN(CC(=O)O)CCN(CC(=O)O)CCN(CC(=O)O)CC3)CC2)C(=O)N[C@@H](CCCCN)C(=O)N[C@@H](CCC(=O)NC(=N)N)C(=O)NC(C)(C)C(=O)N[C@@H](CC(N)=O)C(=O)N1)C(C)(C)C)C(N)=O` [PSM-0489, DOTA-Cmp-Aib-Pcf-[Cys-Lys-Gin (Gu)-Aib-Asn-Cys]-Tle-Thr-NH2] ({DOTA}-[X1][Aib][Phe(4-Cl)]CKE(Guanidino)[Aib]NC[Tle]T-NH2; disulfide 4-9), the IC50 in test [1] is less than 200 nM. Further, the Kd in test [2] is less than 12.6 nM.
For the compound `C[C@@H](O)[C@H](NC(=O)[C@@H](NC(=O)[C@@H]1CSSC[C@H](NC(=O)[C@H](Cc2ccc(Cl)cc2)NC(=O)C(C)(C)NC(=O)[C@@H](NC(=O)CC2CCN(C(=O)CN3CCN(CC(=O)O)CCN(CC(=O)O)CCN(CC(=O)O)CC3)CC2)[C@@H](C)O)C(=O)N[C@@H](CCCCNC(=O)CCCC[C@@H]2SC[C@@H]3NC(=O)N[C@@H]32)C(=O)N[C@@H](CCCNC(=N)N)C(=O)NC(C)(C)C(=O)N[C@@H](CC(N)=O)C(=O)N1)C(C)(C)C)C(N)=O` [PSM-0490, DOTA-Cmp-Thr-Aib-Pcf-[Cys-Lys (Bio)-Arg-Aib-Asn-Cys]-Tle-Thr-NH2] ({DOTA}-[X1]T[Aib][Phe(4-Cl)]CK(Biotin)R[Aib]NC[Tle]T-NH2; disulfide 5-10), in test [1], the IC50 is 200 to 1260 nM. Moreover, the Kd in test [2] was less than 12.6 nM.
As to `CCCC[C@H](NC(=O)[C@@H]1CSSC[C@H](NC(=O)[C@H](Cc2ccccc2)NC(=O)[C@H](C)NC(=O)[C@H](C)NC(C)=O)C(=O)N[C@@H](CCCCN)C(=O)N[C@@H](CCCNC(=N)N)C(=O)N[C@@H](C)C(=O)N[C@@H](CC(N)=O)C(=O)N1)C(=O)N[C@H](C(=O)N[C@@H](CC(=O)O)C(N)=O)[C@@H](C)O` [PSM-0491, Ac-Ala-Ala-Phe-[Cys-Lys-Arg-Ala-Asn-Cys]-Nle-Thr-Asp-NH2] (Ac-AAFCKRANC[Nle]TD-NH2; disulfide 4-9), in test [1], the IC50 was 200 to 1260 nM. The Kd in test [2] is 126 to 501 nM.
